Results: US20170128390A1, “DISINFECTANT AND ANTIMICROBIAL COMPOSITIONS, IN PARTICULAR FOR THE VETERINARY FIELD” (I.C.F. S.R.L., priority 2014, published 2017)

Legend:
[1] = test system: Staphylococcus aureus ATCC 25923; experiment: Time-killing assay (bactericidal activity of new formulations), CFU count; format: cell-based; conditions: CLX 0.000106%, AMP 2041 0.5 μg/ml; for Δ (change of CFU count) at T0 / CFU count at T0: T0 = 0 min; for CFU count at T0 / CFU count at T0.5 / CFU count at T1 / CFU count at T3 / CFU count at T5 / CFU count at T10: CC 600; for Δ (change of CFU count) at T0.5 / CFU count at T0.5: T0.5 = 0.5 min; for Δ (change of CFU count) at T1 / CFU count at T1: T1 = 1 min; for Δ (change of CFU count) at T3 / CFU count at T3: T3 (footnote: T2.5 = 2.5 min); for Δ (change of CFU count) at T5 / CFU count at T5: T5 = 5 min; for Δ (change of CFU count) at T10 / CFU count at T10: T10 = 10 min
Method: For each strain of reference, three to five morphologically similar colonies are selected from blood agar plates and inoculated into tubes containing 6 ml of Brain Heart Infusion broth (DIFCO, USA).
The tubes are vortexed and incubated at 37° C. with stirring at 225 rpm for 3-4 hours, until achieving a required degree of turbidity, greater than or equal to 0.5 of the Mc Farland scale.
Thereafter, the bacterial suspension is centrifuged at 1000 rpm for 20 minutes. The resulting pellet of bacteria is resuspended in 10mM PB. The turbidity is adjusted with the same buffer solution and checked by measuring the absorbance of the suspension at the spectrophotometer. The absorbance is considered equal to 0.5 of the Mc Farland scale when the optical density at 600 nm is between 0:08-0:13. At this value, the bacterial suspension contains approximately 10^8UFC/ml. Two hundred microliters of the assessed and adjusted bacterial suspension are added to 19.8 ml of 10 mM PB to obtain a final dilution of 1:100. Then, within a thirty minutes, 0:05 ml of this suspension (10^6UFC/ml) are inoculated into each well of an ELISA plate to obtain a final concentration of bacteria of about 5×10^5UFC/ml.
The time-killing assay was carried out to evaluate the bactericidal effects of the new formulations, using a modified quantitative test of the European standards EN1040 and EN1276. 100 μl of the bacterial suspension are added to 900 μl of the new formulation and aliquots of 50 μl of the mixture are subjected to assay at 0.5, 1, 2.5, 5, 10, 20, 30, 60, 90 and 120 min., respectively. 450 μl of neutralizing solution are added to each sample and left to act at room temperature for 3 minutes. Thereafter, each sample is serially diluted in PBS (pH 7.4) and 50 μl are plated on LB agar and the plates incubated at 37° C. for 24 hours for the count of CFU. The sterility control (100 μl PBS in place of the bacterial suspension) and the control in the absence of the new formulation are set up. The test is also carried out in the presence of 0.3% and 3.0% (w/v) BSA to simulate a paraphysiological environment. All experiments were repeated in triplicate.

[2] = test system: Pseudomonas aeruginosa ATCC 27853; experiment: as above; format: cell-based; conditions: CLX 0.000106%, AMP 2041 0.5 μg/ml, TRIS-EDTA 0.1% alone or 0.476%-0.126% in triple combination; for Δ (change of CFU count) at T0 / CFU count at T0: T0 = 0 min; for CFU count at T0 / CFU count at T0.5 / CFU count at T1 / CFU count at T3 / CFU count at T5 / CFU count at T10: CC 600; for Δ (change of CFU count) at T0.5 / CFU count at T0.5: T0.5 = 0.5 min; for Δ (change of CFU count) at T1 / CFU count at T1: T1 = 1 min; for Δ (change of CFU count) at T3 / CFU count at T3: T3 (footnote: T2.5 = 2.5 min); for Δ (change of CFU count) at T5 / CFU count at T5: T5 = 5 min; for Δ (change of CFU count) at T10 / CFU count at T10: T10 = 10 min
Method: The tubes are vortexed and incubated at 37° C. with stirring at 225 rpm for 3-4 hours, until achieving a required degree of turbidity, greater than or equal to 0.5 of the Mc Farland scale. Thereafter, the bacterial suspension is centrifuged at 1000 rpm for 20 minutes. The resulting pellet of bacteria is resuspended in 10mM PB. The turbidity is adjusted with the same buffer solution and checked by measuring the absorbance of the suspension at the spectrophotometer. The absorbance is considered equal to 0.5 of the Mc Farland scale when the optical density at 600 nm is between 0:08-0:13. At this value, the bacterial suspension contains approximately 10^8UFC/ml. Two hundred microliters of the assessed and adjusted bacterial suspension are added to 19.8 ml of 10 mM PB to obtain a final dilution of 1:100. Then, within a thirty minutes, 0:05 ml of this suspension (10^6UFC/ml) are inoculated into each well of an ELISA plate to obtain a final concentration of bacteria of about 5×10^5UFC/ml. […] Thereafter, each sample is serially diluted in PBS (pH 7.4) and 50 μl are plated on LB agar and the plates incubated at 37° C. for 24 hours for the count of CFU. The sterility control (100 μl PBS in place of the bacterial suspension) and the control in the absence of the new formulation are set up. The test is also carried out in the presence of 0.3% and 3.0% (w/v) BSA to simulate a paraphysiological environment. All experiments were repeated in triplicate.

Compound	Δ (change of CFU count) at T0 [1]	CFU count at T0 [1]	Δ (change of CFU count) at T0.5 [1]	CFU count at T0.5 [1]	Δ (change of CFU count) at T1 [1]	CFU count at T1 [1]	Δ (change of CFU count) at T3 [1]	CFU count at T3 [1]	Δ (change of CFU count) at T5 [1]	CFU count at T5 [1]	Δ (change of CFU count) at T10 [1]	CFU count at T10 [1]	Δ (change of CFU count) at T0 [2]	CFU count at T0 [2]	Δ (change of CFU count) at T0.5 [2]	CFU count at T0.5 [2]	Δ (change of CFU count) at T1 [2]	CFU count at T1 [2]	Δ (change of CFU count) at T3 [2]	CFU count at T3 [2]	also measured
[H]/N=C(\N/C(=N/[H])NCCCCCCNC(=N)NC(=N)Nc1ccc(Cl)cc1)Nc1ccc(Cl)cc1 [CLX, chlorhexidine]	Δ = 0%	600	Δ = 0%	600	Δ = 0%	600	Δ = 0%	600	Δ = 0%	600	Δ = 0%	600	Δ = 0%	600	Δ = 0%	600	Δ = 0%	600	Δ = 0%	600	Δ (change of CFU count) at T5 [2]: Δ = 0%; CFU count at T5 [2]: 600; Δ (change of CFU count) at T10 [2]: Δ = 0%; CFU count at T10 [2]: 600
AMP 2041: peptide named AMP2041 (SEQ.ID. No.1), synthesized by SelleckChem (HKCAKIKWRGVHVKYCA)	Δ = 0%	600	Δ = 0%	600	Δ = 0%	600	Δ = 0%	600	Δ = 0%	600	Δ = 0%	600	Δ = 0%	600	Δ = 0%	600	Δ = 0%	600	Δ = 0%	600	Δ (change of CFU count) at T5 [2]: Δ = 0%; CFU count at T5 [2]: 600; Δ (change of CFU count) at T10 [2]: Δ = 0%; CFU count at T10 [2]: 600
